The source of these data is ChEMBL document CHEMBL1125264, “2'-Deoxy-2'-methylenecytidine and 2'-deoxy-2',2'-difluorocytidine 5'-diphosphates: potent mechanism-based inhibitors of ribonucleotide reductase” (J Med Chem, 1991).

Test [1] deals with Ribonucleoside-diphosphate reductase (Escherichia coli). Nature of the test: Compound was evaluated for time-dependent inactivation of Ribonucleotide diphosphate reductase (RDPR) in Escherichia coli.
Test [2] relates to Ribonucleoside-diphosphate reductase (Escherichia coli). The experiment in a line: Compound was evaluated for time-dependent inactivation of rRibonucleotide diphosphate reductase (RDPR) in Escherichia coli.

`C=C1[C@H](n2ccc(=O)[nH]c2=O)O[C@H](COP(=O)(O)OP(=O)(O)O)[C@H]1O` showed a Ki in test [1] of 830 µM. This compound also gave a K inact in test [2] of 0.015 s⁻¹.
